Where two headings read alike, the source gives them in different places. Peptide text beside a SMILES is read from it. * marks the point of attachment. Palmitoyl = CCCCCCCCCCCCCCCC(=O)*
Tests used:
[1] = test system: 35 HIV-1 pseudoviruses (subtypes A, B, B', C, G, A/C, A/E, B/C); conditions: for IC50: read-out: average IC50 for inhibition of various types of HIV-1 pseudoviruses, average over 35 pseudoviruses
Description: HIV-1 pseudovirus-mediated cell entry inhibition assay: basic steps included: (1) Preparation of HIV-1 pseudovirus: the 293T cells were co-transfected with a plasmid expressing the envelope protein (Env) of HIV-1 strain NL4-3 (i.e., a recombinant expression plasmid obtained by inserting the gene encoding the envelope protein (ENV) of the D36G mutant of the HIV-1 strain NL4-3 in the Table 2 of the Reference 14 listed in the Background Art into the vector pcDNA3.1(−)) and the HIV-1 backbone plasmid pSG3Δenv (provided by the AIDS Reagent Program of National Institutes of Health (NIH), catalog number: 11051) by using a cell transfection reagent, incubated in a cell incubator of 37° C. and 5% CO2 for 6 hours, and then the medium was changed, and the cells were further incubated for 48 hours. The cell culture supernatant containing pseudovirus particles was pipetted and filtered with a 0.45 μm filter to collect the supernatant, then 20% fetal bovine serum (FBS) was added thereto, the final solution was transferred to a polypropylene tube, and stored at −80° C. for ready for use or directly subjected to virus titration. (2) Titration of HIV-1 pseudovirus: the viruses were diluted by 5 folds in a 96-well plate, and 4 replicate wells with 8 gradients were set to a final volume of 100 microliters. The TZM-b1 cells were trypsinized and counted, and the cells were diluted to 1×10^5 cells/ml with DMEM complete medium; 100 μl of cells dilution (containing 15 μg/ml DEAE-dextran) per well were added and cultured at 37° C. and 5% CO2 for 48 hours. The 96-well plate was then taken from the cell culture incubator. The supernatant was discarded from the wells. To each well, 30 μl of a cell lysate was added, and after 10 minutes, 100 μl of a luciferase detection reagent was added. 100 μl of liquid was pipetted from each well and added to a corresponding 96-well white plate, and the luminescence values were read by a microplate photometer. The virus titer was calculated by the Reed-Muench method. (3) Antiviral activity assay: the test substance was dissolved in DMSO and diluted with a cell culture solution by 3 folds, and placed in a 96-well plate at a final volume of […]. 50 μl of a DMEM medium was used in place of the test substance as a negative control. To each well, 100 μl of TZM-b1 target cells solution (containing 15 μg/ml DEAE-dextran) at a concentration of 1×10^5 cells/ml was added, and then 50 μl (corresponding to 100 TCID50 per well) of the HIV-1 pseudovirus obtained above was added. After incubation at 37° C. and 5% CO2 for 48 hours, the relative light units (RLU) of each well were determined by using a luciferase detection reagent (Promega). Inhibition rate (%) and IC50 value were calculated.
Among them, the A, B and C subtypes were the main viruses causing AIDS epidemic in the world, while B/C and A/E recombinant viruses were the main viruses in China. […] Among the Env expression plasmids used for the preparation of pseudoviral, except that the Env expression plasmids used for preparation of PVO, Du156 and CAP 210.2.00.E8 were obtained from the AIDS Reagent Program of NIH in the United states, other plasmids were preserved by the laboratory of Prof. He Yuxian, Institute of Pathogen Biology, Chinese Academy of Medical Sciences, please see the References 13, 14 and 18 listed in the Background Art and articles of Chong et al. (Chong H, Yao X, Zhang C, Cai L, Cui S, Wang Y, He Y. Biophysical property and broad anti-HIV activity of Albuvirtide, a 3-maleimimidoproprotionic acid-modified peptide fusion inhibitor. PLoS One, 2012; 7 (3): e 32599). The preparation of the pseudovirus and the antiviral assay were the same as those in Example 2.1 of Example 2 (HIV-1 pseudovirus-mediated cell entry inhibition assay).

[2] = test system: HIV-1 strain NL4-3 pseudovirus (D36G mutant); assay type: cell-based
Method: (§1) The supernatant was discarded from the wells. […] Inhibition rate (%) and IC50 value were calculated.

[3] = test system: HIV-1 strain NL4-3 (NL4-3D36G); experiment: antiviral activity in serum of macaque after subcutaneous injection; assay type: in vivo, macaques (rhesus monkeys); conditions: 3 mg/kg subcutaneous
Method: The specific method was as follows: 6 experimental macaques (rhesus monkeys) were selected, half male and half female, aged 3-4 years old, weighing 3.4-4.7 kg. […] The serum was separated according to a conventional method. The injection interval of each inhibitor was more than 2 weeks to ensure that there was no residue of the previous analyte. The serum activity against the HIV-1 strain NL4-3 (NL4-3D36G) was measured according to the experimental method of the pseudovirus-based assay in the above examples. The serum was diluted by 3 folds. […] Therefore, the lipopeptides of the present invention were not only potent but also were long-lasting effective.

[4] = test system: HIV-2 strain ROD (infectious); experiment: inhibition of HIV-2; assay type: cell-based; conditions: HIV-2 ROD
Method: (§2) Inhibition rate (%) and IC50 value were calculated.
(§3) In order to further reflect the antiviral advantages of the potent lipopeptides of the present invention, their inhibitory activity against HIV-2 and SIV was determined in the example. The methods of antiviral activity assays used were described in the literatures published by the present inventors (see the References 13 and 30 listed in the Background Art). The molecular cloning plasmid pROD of the HIV-2 strain ROD (HIV-2ROD) was kindly provided by Professor Nuno Taveira from the University of Lisbon, Portugal, and the plasmids expressing the SIV strain SIVpbj (SIVPBJ) and SIV239 envelope proteins (pSIVpbj-Env and pSIV239, respectively) were kindly provided by Professor Xu Jianqing from the Fudan University. The preparation of the infectious ROD was the same as that of the infectious JRCSF in the above section 2.1, and the pseudoviruses SIVpbj and SIV239 were prepared by a method same as that described in the above Examples 2 and 3.

[5] = test system: SIV pseudoviruses SIVpbj and SIV239; experiment: inhibition of SIV pseudoviruses; assay type: cell-based
Method: as §1, §3

NL4-3WT pseudovirus = conditions: wild type NL4-3WT
Description: HIV-1 pseudovirus-mediated cell entry inhibition assay: basic steps included: (1) Preparation of HIV-1 pseudovirus: the 293T cells were co-transfected with a plasmid expressing the envelope protein (Env) of HIV-1 strain NL4-3 (i.e., a recombinant expression plasmid obtained by inserting the gene encoding the envelope protein (ENV) of the D36G mutant of the HIV-1 strain NL4-3 in the Table 2 of the Reference 14 listed in the Background Art into the vector pcDNA3.1(−)) and the HIV-1 backbone plasmid pSG3Δenv (provided by the AIDS Reagent Program of National Institutes of Health (NIH), catalog number: 11051) by using a cell transfection reagent, incubated in a cell incubator of 37° C. and 5% CO2 for 6 hours, and then the medium was changed, and the cells were further incubated for 48 hours. The cell culture supernatant containing pseudovirus particles was pipetted and filtered with a 0.45 μm filter to collect the supernatant, then 20% fetal bovine serum (FBS) was added thereto, the final solution was transferred to a polypropylene tube, and stored at −80° C. for ready for use or directly subjected to virus titration. […] The TZM-b1 cells were trypsinized and counted, and the cells were diluted to 1×10^5 cells/ml with DMEM complete medium; 100 μl of cells dilution (containing 15 μg/ml DEAE-dextran) per well were added and cultured at 37° C. and 5% CO2 for 48 hours. […]

[6] = target: N39 (NHR-derived polypeptide of gp41) (Human immunodeficiency virus type 1 group M subtype B, UniProt P04578); assay type: binding, HIV-1; conditions: 10 μM each, PBS pH 7.2
Method: (§4) The circular dichroism spectrophotometer was Jasco-815 by JASCO Inc., and the assay method was referred to the papers published by the inventors (see the References 18 and 30 listed in the Background Art). […] The N39 and an inhibitor were separately dissolved in a phosphate buffered saline (PBS) to prepare a PBS solution (pH 7.2) of a concentration of 20 μM. The N39 was mixed with an inhibitor at a volume ratio of 1:1 (final concentration of 10 μM for each), the mixed sample was placed at 37° C. for 30 minutes to fully react, and then the helix content and Tm value of the resultant complex were measured by the circular dichroism spectrophotometer. The scan wavelength range of the device was 195-260 nm with a wavelength interval of 1 nm, and the values measured by scanning for three times were averaged. Based on the CD signals, the interaction between the polypeptides and the helix content were determined. Then, the sample for CD signal measurement was transferred to the temperature scanning sample cell, the program of the CD device was set to temperature scanning with a detection wavelength of 220 nm and scanning range of 20-98° C., and the program scan was performed to obtain the curve of the CD signals vs temperature, based on which the Tm value was calculated. Based on the Tm value, the stability of the formed helical structure of the inhibitor and N39 was judged.

[7] = circular dichroism secondary structure analysis of the inhibitors themselves; assay type: physicochemical; conditions: 10 μM, 20 μM and 40 μM in PBS
Method: as §4
For easy analysis, the α-helix content and the Tm value of the inhibitors were measured at concentrations of 10 μM, 20 μM, and 40 μM (PBS solution), respectively.

[8] = test system: NL4-3 pseudovirus carrying T-20 resistance mutation site of NHR; experiment: inhibition of T-20 resistant strains; assay type: cell-based, HIV-1; conditions: strains with single or double mutations
[9] = test system: HXB2-mediated cell fusion (HL2/3 effector cells, TZM-b1 target cells); assay type: cell-based, HIV-1
Method: HIV-1 mediated cell fusion inhibition assay: the effector cells (HL2/3 cells) and target cells (TZM-b1 cells) were provided by the AIDS Reagent Program of National Institutes of Health (NIH) (catalog numbers: 1294 and 8129, respectively). The both cells were adherent cells and were cultured in a DMEM cell culture medium containing ampicillin/streptomycin double antibiotics and 10% fetal bovine serum (FBS). The TZM-b1 was first added to a 96-well cell culture plate (1×10^4 cells/well), and cultured overnight at 37° C. and 5% CO2. The test substance was diluted with the DMEM cell culture medium by 3 folds and mixed with HL2/3 effector cells (3×10^4 cells/well), then added to the TZM-b1 target cells, and further cultured for 6 hours to fully fuse. The activity of luciferase (relative fluorescence units, RLU) was then determined using a luciferase reporter gene kit from Promega company according to the instructions. The inhibition rate of each sample at each concentration was calculated, and the half effective inhibitory concentration (IC50 value) was calculated using GraphPad Prism Software 2.01.

HIV-1 strain JRCSF = assay type: cell-based
Method: as §2

N39 (NHR-derived polypeptide of gp41), sequence (P04578 528-566): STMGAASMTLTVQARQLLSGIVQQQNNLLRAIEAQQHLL

For enfuvirtide, the IC50 [1] was 41.4 nM, the IC50 ([2]; NL4-3D36G mutant, Example 4, read-out: IC50) was 13.7 nM and the “maximum serum dilution multiple for inhibiting 50% of NL4-3 infectivity” value ([3]; 2 hour after injection) was 45 folds. The “maximum serum dilution multiple for inhibiting 50% of NL4-3 infectivity” value ([3]; 4 hour after injection) was 46 folds, the “inhibitory activity against HIV-2 (in words)” value [4] was “extremely weak” and the “inhibitory activity against SIV (in words)” value [5] was “extremely weak”. The IC50 (NL4-3WT pseudovirus) was 152 nM, the “helix content of the complex with N39” value [6] was 48.6% and the “secondary structure of the inhibitor itself (in words)” value [7] was “irregular disorder structure”. The “inhibitory activity against T-20 resistant strains (in words)” value [8] was “significantly increased by several folds”.

For `CCCCCCCCCCCCCCCC(=O)NCCCC[C@H](NC(=O)[C@H](CCC(=O)O)NC(=O)[C@H](CC(C)C)NC(=O)[C@H](CCCCN)NC(=O)[C@H](CCCCN)NC(=O)[C@H](CC(C)C)NC(=O)[C@H](CCC(=O)O)NC(=O)[C@H](CCC(=O)O)NC(=O)[C@H](CCC(=O)O)NC(=O)[C@H](CC(N)=O)NC(=O)[C@H](CCCCN)NC(=O)[C@H](CCCCN)NC(=O)[C@H](CCC(N)=O)NC(=O)[C@H](CCC(N)=O)NC(=O)[C@H](CCC(=O)O)NC(=O)[C@H](CCC(=O)O)NC(=O)[C@H](CO)NC(=O)[C@H](CCCCN)NC(=O)[C@H](CCCCN)NC(=O)[C@@H](NC(=O)[C@H](CC(C)C)NC(=O)[C@H](CCC(=O)O)NC(=O)[C@H](CCC(=O)O)NC(=O)[C@@H](NC(=O)[C@H](CC(C)C)NC(=O)[C@H](CO)NC(=O)[C@@H](NC(=O)[C@H](Cc1ccc(O)cc1)NC(C)=O)[C@@H](C)O)[C@@H](C)CC)[C@@H](C)CC)C(N)=O` [LP-50] (Ac-YTSLIEELIKKSEEQQKKNEEELKKLEK(Palmitoyl)-NH2), the IC50 [1] was 0.041 nM, the “inhibitory activity against different subtypes of HIV-1 as folds of T-20” value ([1]; relative to T-20, from average IC50) was 1010 folds and the IC50 ([2]; Entry of NL4-3 (D36G), read-out: IC50 for inhibiting pseudovirus) was 0.007 nM. For the same compound, the “inhibitory activity as folds of that of T-20” value ([2]; NL4-3 pseudovirus entry, relative to T-20) was 1345 folds, the “inhibitory activity as folds of that of LP-40” value ([2]; pseudovirus, relative to LP-40) was 63 folds and the “inhibitory activity against HIV-2 (in words)” value [4] was “extremely potent inhibitory activity”. The “inhibitory activity against SIV (in words)” value [5] was “extremely potent inhibitory activity”, the IC50 ([9]; HXB2-cell fusion, read-out: IC50 for inhibiting cell fusion) was 0.021 nM and the “inhibitory activity as folds of that of T-20” value ([9]; HXB2-mediated cell fusion, relative to T-20) was 1151 folds. The “inhibitory activity as folds of that of LP-40” value ([9]; cell fusion, relative to LP-40) was 20 folds, the “Tm value of the complex with N39” value [6] was 63.3 °C and the “secondary structure of the inhibitor itself (in words)” value [7] was “distinct helical structure”. For the same compound, the “inhibitory activity as folds of that of T-20” value (HIV-1 strain JRCSF; JRCSF replication, relative to T-20) was 226 folds, the IC50 (HIV-1 strain JRCSF; Replication of JRCSF, read-out: IC50 for inhibiting replicative virus) was 0.023 nM and the “inhibitory activity as folds of that of LP-40” value (HIV-1 strain JRCSF; replicative virus, relative to LP-40) was 12 folds. The “inhibitory activity against T-20 resistant strains (in words)” value [8] was “further improved by hundreds or even thousands of folds”.

— patent publication US11680086B2, “Lipopeptide for potently inhibiting HIV, derivative thereof, pharmaceutical composition thereof and use thereof” (Institute of Pathogen Biology, Chinese Academy of Medical …, priority 2017, dated 2023)
